Test results from PMC10355420, “The glutathione import system satisfies the Staphylococcus aureus nutrient sulfur requirement and promotes interspecies competition” (PLOS Genetics, 2023).

Molecular target: T1, recombinant GisA, SAUSA300_0200 (Staphylococcus aureus, UniProt A0A0H2XI71)
T1 construct: His-tagged, pET28b, purified from E. coli slyD mutant by Ni-NTA; ATPase subunit alone
T1 sequence (A0A0H2XI71 1-530): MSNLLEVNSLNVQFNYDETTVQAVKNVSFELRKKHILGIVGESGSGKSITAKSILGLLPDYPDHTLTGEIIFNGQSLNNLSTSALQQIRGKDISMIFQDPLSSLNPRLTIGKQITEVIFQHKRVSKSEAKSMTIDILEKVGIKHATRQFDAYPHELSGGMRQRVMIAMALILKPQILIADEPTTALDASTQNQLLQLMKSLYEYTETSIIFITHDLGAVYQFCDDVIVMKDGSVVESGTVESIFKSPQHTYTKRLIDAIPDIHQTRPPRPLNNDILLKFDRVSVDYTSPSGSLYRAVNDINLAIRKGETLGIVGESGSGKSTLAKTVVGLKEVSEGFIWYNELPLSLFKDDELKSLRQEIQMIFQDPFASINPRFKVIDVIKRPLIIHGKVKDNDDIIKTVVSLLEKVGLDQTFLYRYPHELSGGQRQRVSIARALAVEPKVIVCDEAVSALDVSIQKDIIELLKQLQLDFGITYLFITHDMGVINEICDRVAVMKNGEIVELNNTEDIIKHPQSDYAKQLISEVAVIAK
Experiment: ATP hydrolysis assay
Format: biochemical
Details: GisA alone; details only in supplement

For `Nc1ncnc2c1ncn2[C@@H]1O[C@H](COP(=O)(O)OP(=O)(O)OP(=O)(O)O)[C@@H](O)[C@H]1O` [ATP], the ATP hydrolysis assay was “recombinant GisA purified from Escherichia coli exhibits ATP hydrolysis activity”.
